{"source": "patent US20230218624A1", "about": "(Urovant Sciences GmbH, priority 2017, published 2023)", "key": {"[1]": {"assay": "Mass balance study with [14C]vibegron in healthy subjects", "details": "human plasma, 2 and 4 hr"}, "[2]": {"system": "QTc interval", "assay": "Thorough QT study, single oral doses", "details": "single dose 400 mg moxifloxacin"}, "[3]": {"details": "human, in vivo, po"}, "[4]": {"system": "men and women with OAB", "assay": "Phase 2b efficacy study in men and women with OAB", "assay_type": "in vivo, human", "text": "Part 2 was designed to continue to assess the safety and efficacy of concomitant dosing. […] Subjects in both Part 1 and Part 2 had the option of enrolling in a 1-year extension. Participants were required to keep a voiding diary, recording the occurrence of each strong urge, total incontinence, and urge incontinence episode. Efficacy data for Part 1 and Part 2 are summarized herein.\nThe total number of urgency incontinence episodes must have exceeded the total number of stress incontinence episodes for all subjects.\nConversely, a dose dependent effect on urge incontinence or total incontinence was not observed."}, "[5]": {"system": "patients with overactive bladder", "assay": "Phase 2 safety data, adverse events (main study and 52-week extension)", "set-up": "Drug-related AE, n subjects / Drug-related AE, % subjects / Discontinuation due to AE, n subjects / Discontinuation due to AE, % subjects / Discontinuation due to drug-related AE, n subjects / Dry eye, n subjects / Dry eye, % subjects / Constipation, n subjects / Constipation, % subjects / Diarrhea, n subjects / Diarrhea, % subjects / Dry mouth, n subjects / Dry mouth, % subjects / Alanine aminotransferase increased, n subjects / Alanine aminotransferase increased, % subjects / Aspartate aminotransferase increased, n subjects / Aspartate aminotransferase increased, % subjects / Arthralgia, n subjects / Arthralgia, % subjects / Dizziness, n subjects / Dizziness, % subjects / Dysuria, n subjects / Dysuria, % subjects: dose or concentration left out as unconfirmed", "text": "A placebo group was included in the main study, and a group that received tolterodine monotherapy was included in the main study and in the extension."}, "[6]": {"system": "patients with OAB", "assay": "Phase 2b cardiovascular safety: orthostatic AEs, HR and BP changes", "assay_type": "in vivo, human", "details": "tolterodine 4 mg", "text": "None led to discontinuation. The overall incidence of orthostatic symptoms was low.\nSmall differences in the percent of subjects exceeding categorical heart rate and blood pressure thresholds for vibegron were similar to those in the tolterodine arm."}, "[7]": {"details": "tolterodine ER 4 mg, OAB wet subjects"}, "[8]": {"details": "3 consecutive post-baseline visits"}}, "note": "Like-named read-outs stand apart in the source and are kept apart here.", "data": [{"smiles": "O=C(O)C1OC(OC(c2ccccc2)C2CCC(Cc3ccc(NC(=O)C4CCc5nccc(=O)n54)cc3)N2)C(O)C(O)C1O", "note": "(stereo not shown) [M7]", "values": [{"measurement": "share of total circulating drug-related material", "setting": "[1]", "value": "12-14%"}]}, {"smiles": "COc1c(N2C[C@@H]3CCCN[C@@H]3C2)c(F)cc2c(=O)c(C(=O)O)cn(C3CC3)c12", "note": "[moxifloxacin, reference compound]", "values": [{"measurement": "effect on QTcF", "setting": "[2]", "value": "statistically significant effect"}]}, {"smiles": "C#C[C@]1(O)CC[C@H]2[C@@H]3CCC4=CC(=O)CC[C@@H]4[C@H]3CC[C@@]21CC", "note": "[LNG, levonorgestrel]", "values": [{"measurement": "AUC of conmed, geometric mean", "setting": "[3]; 0.15 mg", "value": 31, "unit": "ng·h/mL"}]}, {"smiles": "Cc1ccc(O)c([C@H](CCN(C(C)C)C(C)C)c2ccccc2)c1", "note": "[Tolterodine ER, tolterodine]", "values": [{"measurement": "Micturitions, change from baseline Week 8, mean", "setting": "[4]; tolterodine ER 4 mg", "value": "−1.73"}, {"measurement": "Micturitions, daily number, Week 8 mean", "setting": "[4]; tolterodine ER 4 mg", "value": 9.24}, {"measurement": "Micturitions, difference from placebo Week 8, difference in LS means", "setting": "[4]; tolterodine ER 4 mg", "value": "−0.54"}, {"measurement": "Urgency episodes, change from baseline Week 8, mean", "setting": "[4]; tolterodine ER 4 mg", "value": "−2.52"}, {"measurement": "Urgency episodes, daily number, Week 8 mean", "setting": "[4]; tolterodine ER 4 mg", "value": 3.91}, {"measurement": "Urgency episodes, difference from placebo Week 8, difference in LS means", "setting": "[4]; tolterodine ER 4 mg", "value": "−0.94"}, {"measurement": "Change from baseline in volume voided per micturition, difference from placebo in LS means", "setting": "[4]; tolterodine ER 4 mg once daily, Week 8", "value": 30.77, "unit": "mL"}, {"measurement": "Total incontinence episodes, change from baseline Week 8, mean", "setting": "[4]; [7]", "value": "−1.80"}, {"measurement": "Total incontinence episodes, daily number, Week 8 mean", "setting": "[4]; [7]", "value": 1.32}, {"measurement": "Total incontinence episodes, difference from placebo Week 8, difference in LS means", "setting": "[4]; [7]", "value": "−0.34"}, {"measurement": "Urgency incontinence episodes, change from baseline Week 8, mean", "setting": "[4]; [7]", "value": "−1.67"}, {"measurement": "Urgency incontinence episodes, daily number, Week 8 mean", "setting": "[4]; [7]", "value": 1.15}, {"measurement": "Urgency incontinence episodes, difference from placebo Week 8, difference in LS means", "setting": "[4]; [7]", "value": "−0.46"}, {"measurement": "Accidental overdose, % subjects", "setting": "[5]; 4 mg, first 12 weeks", "value": "(2.3) %"}, {"measurement": "Accidental overdose, n subjects", "setting": "[5]; 4 mg, first 12 weeks", "value": 6}, {"measurement": "Fatigue, % subjects", "setting": "[5]; 4 mg, first 12 weeks", "value": "(2.3) %"}, {"measurement": "Fatigue, n subjects", "setting": "[5]; 4 mg, first 12 weeks", "value": 6}, {"measurement": "Headache, % subjects", "setting": "[5]; 4 mg, first 12 weeks", "value": "(3.5) %"}, {"measurement": "Headache, n subjects", "setting": "[5]; 4 mg, first 12 weeks", "value": 9}, {"measurement": "Nasopharyngitis, % subjects", "setting": "[5]; 4 mg, first 12 weeks", "value": "(1.6) %"}, {"measurement": "Nasopharyngitis, n subjects", "setting": "[5]; 4 mg, first 12 weeks", "value": 4}, {"measurement": "Nausea, % subjects", "setting": "[5]; 4 mg, first 12 weeks", "value": "(2.3) %"}, {"measurement": "Nausea, n subjects", "setting": "[5]; 4 mg, first 12 weeks", "value": 6}, {"measurement": "Osteoarthritis, % subjects", "setting": "[5]; 4 mg, first 12 weeks", "value": "(0.0) %"}, {"measurement": "Osteoarthritis, n subjects", "setting": "[5]; 4 mg, first 12 weeks", "value": 0}, {"measurement": "Pain in extremity, % subjects", "setting": "[5]; 4 mg, first 12 weeks", "value": "(0.4) %"}, {"measurement": "Pain in extremity, n subjects", "setting": "[5]; 4 mg, first 12 weeks", "value": 1}, {"measurement": "Serious AE, % subjects", "setting": "[5]; 4 mg, first 12 weeks", "value": "(1.2) %"}, {"measurement": "Serious AE, n subjects", "setting": "[5]; 4 mg, first 12 weeks", "value": 3}, {"measurement": "Sinusitis, % subjects", "setting": "[5]; 4 mg, first 12 weeks", "value": "(0.4) %"}, {"measurement": "Sinusitis, n subjects", "setting": "[5]; 4 mg, first 12 weeks", "value": 1}, {"measurement": "Urinary tract infection, % subjects", "setting": "[5]; 4 mg, first 12 weeks", "value": "(4.7) %"}, {"measurement": "Urinary tract infection, n subjects", "setting": "[5]; 4 mg, first 12 weeks", "value": 12}, {"measurement": "≥1 AE, % subjects", "setting": "[5]; 4 mg, first 12 weeks", "value": "(45.1) %"}, {"measurement": "≥1 AE, n subjects", "setting": "[5]; 4 mg, first 12 weeks", "value": 116}, {"measurement": "frequency of injuries", "setting": "[5]; Phase 2 study arms", "value": 2.1, "unit": "%"}, {"measurement": "Alanine aminotransferase increased, % subjects", "setting": "[5]; first 12 weeks", "value": "(0.4) %"}, {"measurement": "Alanine aminotransferase increased, n subjects", "setting": "[5]; first 12 weeks", "value": 1}, {"measurement": "Arthralgia, % subjects", "setting": "[5]; first 12 weeks", "value": "(1.2) %"}, {"measurement": "Arthralgia, n subjects", "setting": "[5]; first 12 weeks", "value": 3}, {"measurement": "Aspartate aminotransferase increased, % subjects", "setting": "[5]; first 12 weeks", "value": "(0.0) %"}, {"measurement": "Aspartate aminotransferase increased, n subjects", "setting": "[5]; first 12 weeks", "value": 0}, {"measurement": "Constipation, % subjects", "setting": "[5]; first 12 weeks", "value": "(1.9) %"}, {"measurement": "Constipation, n subjects", "setting": "[5]; first 12 weeks", "value": 5}, {"measurement": "Diarrhea, % subjects", "setting": "[5]; first 12 weeks", "value": "(3.5) %"}, {"measurement": "Diarrhea, n subjects", "setting": "[5]; first 12 weeks", "value": 9}, {"measurement": "Discontinuation due to AE, % subjects", "setting": "[5]; first 12 weeks", "value": "(1.6) %"}, {"measurement": "Discontinuation due to AE, n subjects", "setting": "[5]; first 12 weeks", "value": 4}, {"measurement": "Discontinuation due to drug-related AE, n subjects", "setting": "[5]; first 12 weeks", "value": 0}, {"measurement": "Dizziness, % subjects", "setting": "[5]; first 12 weeks", "value": "(1.9) %"}, {"measurement": "Dizziness, n subjects", "setting": "[5]; first 12 weeks", "value": 5}, {"measurement": "Drug-related AE, % subjects", "setting": "[5]; first 12 weeks", "value": "(16.3) %"}, {"measurement": "Drug-related AE, n subjects", "setting": "[5]; first 12 weeks", "value": 42}, {"measurement": "Dry eye, % subjects", "setting": "[5]; first 12 weeks", "value": "(3.9) %"}, {"measurement": "Dry eye, n subjects", "setting": "[5]; first 12 weeks", "value": 10}, {"measurement": "Dry mouth, % subjects", "setting": "[5]; first 12 weeks", "value": "(8.6) %"}, {"measurement": "Dry mouth, n subjects", "setting": "[5]; first 12 weeks", "value": 22}, {"measurement": "Dysuria, % subjects", "setting": "[5]; first 12 weeks", "value": "(1.2) %"}, {"measurement": "Dysuria, n subjects", "setting": "[5]; first 12 weeks", "value": 3}, {"measurement": "SAEs reported", "setting": "[5]; tolterodine 4 mg, main study", "value": 3}, {"measurement": "DBP change from baseline, mean (week 1)", "setting": "[6]", "value": "−0.12", "unit": "mm Hg"}, {"measurement": "DBP change from baseline, mean maximum (week 1 to 8)", "setting": "[6]", "value": 5.19, "unit": "mm Hg"}, {"measurement": "HR change from baseline, mean (week 1)", "setting": "[6]", "value": 0.68, "unit": "bpm"}, {"measurement": "HR change from baseline, mean maximum (week 1 to 8)", "setting": "[6]", "value": 5.66, "unit": "bpm"}, {"measurement": "SBP change from baseline, mean (week 1)", "setting": "[6]", "value": 0.04, "unit": "mm Hg"}, {"measurement": "SBP change from baseline, mean maximum (week 1 to 8)", "setting": "[6]", "value": 7.29, "unit": "mm Hg"}, {"measurement": "DBP change from baseline ≥5 mm Hg, subjects", "setting": "[6]; [8]", "value": "(12.4) %"}, {"measurement": "DBP change from baseline ≥10 bpm, subjects", "setting": "[6]; [8]", "value": "(5.4) %"}, {"measurement": "DBP change from baseline ≥15 bpm, subjects", "setting": "[6]; [8]", "value": "(1.2) %"}, {"measurement": "HR change from baseline ≥5 mm Hg, subjects", "setting": "[6]; [8]", "value": "(12.0) %"}, {"measurement": "HR change from baseline ≥10 bpm, subjects", "setting": "[6]; [8]", "value": "(4.5) %"}, {"measurement": "HR change from baseline ≥15 bpm, subjects", "setting": "[6]; [8]", "value": "(1.7) %"}, {"measurement": "SBP change from baseline ≥5 mm Hg, subjects", "setting": "[6]; [8]", "value": "(16.9) %"}, {"measurement": "SBP change from baseline ≥10 bpm, subjects", "setting": "[6]; [8]", "value": "(7.9) %"}, {"measurement": "SBP change from baseline ≥15 bpm, subjects", "setting": "[6]; [8]", "value": "(2.9) %"}]}, {"smiles": "C#C[C@]1(O)CC[C@H]2[C@@H]3CCc4cc(O)ccc4[C@H]3CC[C@@]21C", "note": "[EE, ethinyl estradiol]", "values": [{"measurement": "AUC of conmed, geometric mean", "setting": "[3]; 0.03 mg", "value": 0.81, "unit": "ng·h/mL"}]}]}
